Our source for the IC50 values is patent US20050197338A1, “Substituted pyrazole urea compounds for the treatment of inflammation” (priority 2003, published 2005).

In the first experiment the target is T1, human IKK-2 (rhIKK-2 homodimer) (Homo sapiens, UniProt O14920).
T1 construct: FLAG (DYKDDDDKD) (C); made in house; host or cells: insect cells (baculovirus, pFastBac)
T1 sequence (O14920 1-756): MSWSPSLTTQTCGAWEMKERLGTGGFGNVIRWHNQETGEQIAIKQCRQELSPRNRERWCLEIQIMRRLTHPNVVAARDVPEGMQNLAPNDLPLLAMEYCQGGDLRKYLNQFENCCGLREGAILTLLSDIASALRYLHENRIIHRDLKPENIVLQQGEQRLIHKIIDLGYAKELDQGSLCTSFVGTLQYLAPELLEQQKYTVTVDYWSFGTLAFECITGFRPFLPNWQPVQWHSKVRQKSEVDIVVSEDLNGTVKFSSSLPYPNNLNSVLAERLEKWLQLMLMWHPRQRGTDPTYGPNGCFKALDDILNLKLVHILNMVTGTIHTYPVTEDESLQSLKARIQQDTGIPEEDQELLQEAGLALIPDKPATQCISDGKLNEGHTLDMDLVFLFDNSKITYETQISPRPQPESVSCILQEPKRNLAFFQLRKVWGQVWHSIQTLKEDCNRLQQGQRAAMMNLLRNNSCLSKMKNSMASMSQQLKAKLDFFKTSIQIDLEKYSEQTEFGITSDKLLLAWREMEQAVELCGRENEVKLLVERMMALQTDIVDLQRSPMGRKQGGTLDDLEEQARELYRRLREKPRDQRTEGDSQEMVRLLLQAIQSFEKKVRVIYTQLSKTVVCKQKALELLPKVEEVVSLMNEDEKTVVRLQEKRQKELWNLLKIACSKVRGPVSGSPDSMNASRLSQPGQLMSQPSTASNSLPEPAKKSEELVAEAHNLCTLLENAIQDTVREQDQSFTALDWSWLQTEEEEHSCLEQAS
The experiment can be described thus: IKK-2 Resin Enzyme Assay (Human IKK-2 Enzyme Assay). Format: biochemical. Particulars: human IKK-2, resin enzyme assay; read-out: IC50 (μM) hIKK-2. An outline of the steps: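 C-terminally FLAG-tagged human IKK-2 homodimer, baculovirus-expressed in insect cells and anti-FLAG purified. Reaction mix: 5 μM biotinylated IκBα peptide (Ser32/Ser36 region), 1 μM ATP with [γ-33P]ATP, 2 mM MgCl2, 2 mM MnCl2, 10 mM NaF, 1 mM DTT, 25 mM HEPES pH 7.6. Incubated 30 min at 25 °C; IC50 derived.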
Turning to `NC(=O)Nc1cn(-c2cccc(-c3ccc(C(F)(F)F)cc3)c2)nc1C(N)=O` [Example 368, 4-[(aminocarbonyl)amino]-1-[4′-(trifluoromethyl)-1,1′-biphenyl-3-yl]-1H-pyrazole-3-carboxamide], the IC50 is more than 20 µM.
Consider `NC(=O)Nc1cn(-c2cccc(-c3ccc(Cl)cc3Cl)c2)nc1C(N)=O` [Example 369, 4-[(aminocarbonyl)amino]-1-(2′,4′-dichloro-1,1′-biphenyl-3-yl)-1H-pyrazole-3-carboxamide], for which the half-inhibitory concentration (IC50) came out at 16.7 µM.
The same measure, in the same setting: in the case of `NC(=O)Nc1cn(-c2cccc(-c3cc(Cl)cc(Cl)c3)c2)nc1C(N)=O` [Example 370, 4-[(aminocarbonyl)amino]-1-(3′,5′-dichloro-1,1′-biphenyl-3-yl)-1H-pyrazole-3-carboxamide] it was more than 20 µM; in that of `NC(=O)Nc1cn(-c2cccc(-c3ccccc3-c3ccccc3)c2)nc1C(N)=O` [Example 371, 4-[(aminocarbonyl)amino]-1-(1,1′:2′,1″-terphenyl-3-yl)-1H-pyrazole-3-carboxamide], 1.09 µM.
On to `NC(=O)Nc1cn(-c2cccc(-c3cccc(-c4ccccc4)c3)c2)nc1C(N)=O` [Example 372], for which the IC50 is more than 20 µM.
Still for that read-out and setting: in the case of `NC(=O)Nc1cn(-c2cccc(-c3ccc(-c4ccccc4)cc3)c2)nc1C(N)=O` [Example 373, 4-[(aminocarbonyl)amino]-1-(1,1′:4′,1″-terphenyl-3-yl)-1H-pyrazole-3-carboxamide] it was more than 20 µM.
On to `CS(=O)(=O)c1ccc(-c2cccc(-n3cc(NC(N)=O)c(C(N)=O)n3)c2)cc1` [Example 374, 4-[(aminocarbonyl)amino]-1-[4′-(methylsulfonyl)-1,1′-biphenyl-3-yl]-1H-pyrazole-3-carboxamide], for which the IC50 was found to be 0.544 µM.
Turning to `NC(=O)Nc1cn(-c2cccc(-c3ccc(C4CCCCC4)cc3)c2)nc1C(N)=O` [Example 375, 4-[(aminocarbonyl)amino]-1-(4′-cyclohexyl-1,1′-biphenyl-3-yl)-1H-pyrazole-3-carboxamide], the 50% inhibitory concentration (IC50) was more than 20 µM.
On the same count and under the same terms, in the case of `NC(=O)Nc1cn(-c2ccc(Sc3ccc(F)cc3)cc2Cl)nc1C(N)=O` [Example 376, 1-(1-(4-(4-fluorophenylthio)-2-chlorophenyl)-3-carbamoyl-1H-pyrazol-4-yl)urea] it was 0.31 µM; in that of `NC(=O)Nc1cn(-c2ccc(S(=O)(=O)c3ccc(F)cc3)cc2Cl)nc1C(N)=O` [Example 377, 1-(1-(4-(4-fluorophenylsulfonyl)-2-chlorophenyl)-3-carbamoyl-1H-pyrazol-4-yl)urea], 0.113 µM; in that of `NC(=O)Nc1cn(-c2ccc(S(=O)(=O)c3ccc(F)cc3)cc2F)nc1C(N)=O` [Example 378, 1-(1-(4-(4-fluorophenylsulfonyl)-2-fluorophenyl)-3-carbamoyl-1H-pyrazol-4-yl)urea], 0.315 µM.
`NC(=O)Nc1cn(-c2ccc(-c3ccccc3CCC(=O)O)cc2)nc1C(N)=O` [Example 379, 3-(4′-{3-(aminocarbonyl)-4-[(aminocarbonyl)amino]-1H-pyrazol-1-yl}-1,1′-biphenyl-2-yl)propanoic acid]: the IC50 is 1.95 µM.
Take `COc1ccc(CNC(=O)CCc2cccc(-c3ccc(-n4cc(NC(N)=O)c(C(N)=O)n4)cc3)c2)c(OC)c1` [Example 380, 4-[(aminocarbonyl)amino]-1-(3′-{3-[(2,4-dimethoxybenzyl)amino]-3-oxopropyl}-1,1′-biphenyl-4-yl)-1H-pyrazole-3-carboxamide]: the IC50 worked out at 1.54 µM.
The same measure, in the same setting: with `CNC(=O)CCc1cccc(-c2ccc(-n3cc(NC(N)=O)c(C(N)=O)n3)cc2)c1` [Example 381, 4-[(aminocarbonyl)amino]-1-{3′-[3-(methylamino)-3-oxopropyl]-1,1′-biphenyl-4-yl}-1H-pyrazole-3-carboxamide] the figure was 0.42 µM.
On the same count and under the same terms, with `CCN(CC)C(=O)CCc1cccc(-c2ccc(-n3cc(NC(N)=O)c(C(N)=O)n3)cc2)c1` [Example 382, 4-[(aminocarbonyl)amino]-1-{3′-[3-(diethylamino)-3-oxopropyl]-1,1′-biphenyl-4-yl}-1H-pyrazole-3-carboxamide] the figure was 0.9 µM; with `CNC(=O)COc1cccc(-c2ccc(-n3cc(NC(N)=O)c(C(N)=O)n3)cc2)c1` [Example 383, 4-[(aminocarbonyl)amino]-1-{3′-[2-(methylamino)-2-oxoethoxy]-1,1′-biphenyl-4-yl}-1H-pyrazole-3-carboxamide], 0.07 µM.

The target of the next experiment is T2, Rat IKK-2 (Rattus norvegicus, UniProt Q9QY78).
T2 sequence (Q9QY78 1-757): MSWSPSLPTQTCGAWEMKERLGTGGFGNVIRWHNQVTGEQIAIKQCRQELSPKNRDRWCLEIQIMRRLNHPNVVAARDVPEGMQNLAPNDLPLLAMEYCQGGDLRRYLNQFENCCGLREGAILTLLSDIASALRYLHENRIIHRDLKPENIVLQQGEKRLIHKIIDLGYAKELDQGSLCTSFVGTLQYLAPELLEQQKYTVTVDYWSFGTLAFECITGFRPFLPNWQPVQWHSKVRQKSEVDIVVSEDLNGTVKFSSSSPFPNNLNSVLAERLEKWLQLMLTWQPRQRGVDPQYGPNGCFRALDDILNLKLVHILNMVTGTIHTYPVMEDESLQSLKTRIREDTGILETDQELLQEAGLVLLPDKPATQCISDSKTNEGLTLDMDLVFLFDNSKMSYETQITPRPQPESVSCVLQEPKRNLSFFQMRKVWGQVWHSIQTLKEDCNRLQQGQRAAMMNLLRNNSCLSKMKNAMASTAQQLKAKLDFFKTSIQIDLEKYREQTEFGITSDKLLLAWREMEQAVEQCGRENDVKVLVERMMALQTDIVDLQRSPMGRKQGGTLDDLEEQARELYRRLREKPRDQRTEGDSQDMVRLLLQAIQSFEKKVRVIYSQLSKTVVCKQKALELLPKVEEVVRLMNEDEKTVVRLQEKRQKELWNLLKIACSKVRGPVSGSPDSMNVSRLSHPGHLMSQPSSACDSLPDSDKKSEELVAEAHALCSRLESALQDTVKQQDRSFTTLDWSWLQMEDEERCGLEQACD
Kind of experiment: Rat IKK-2 enzyme assay. It counts as biochemical. The following applies: read-out: IC50 (μM) rIKK-2. As for the experimental part: Kinase activity was measured using a biotinylated […] peptide (Gly-Leu-Lys-Lys-Glu-Arg-Leu-Leu-Asp-Asp-Arg-His-Asp-Ser32-Gly-Leu-Asp-Ser36-Met-Lys-Asp-Glu-Glu) (American Peptide Co.). 20 μL of the standard reaction mixture contained 5 μM biotinylated IκBα peptide, 0.1 μCi/reaction [γ-^33P] ATP (Amersham) (about 1×10^5 cpm), 1 μM ATP (Sigma), 1 mM DTT (Sigma), 2 mM MgCl2 (Sigma), 2 mM MnCl2 (Sigma), 10 mM NaF (Sigma), 25 mM Hepes (Sigma) buffer, pH. 7.6 and 20 μL enzyme solution (50 nM/rxn or 200 ng/rxn) and 10 μL inhibitor in a final volume of 50 μL. After incubation at 25° C. for 60 min, 150 μL resin was added to each well to stop the reaction. Resin was mixed and allowed to settle for 1 h and 50 μL of supernatant was removed to a Micolite 2 flat bottom plate (Dynex). 150 μL of scintillation fluid (Microscint 40) (Packard) was added to each well. Incorporation of [γ-^33P] ATP was measured using a Top-Count NXT (Packard).
Regarding `NC(=O)Nc1cn(-c2ccc(-c3cc(F)ccc3O)c(F)c2)nc1C(N)=O` [Example 263, 4-[(aminocarbonyl)amino]-1-(2,5′-difluoro-2′-hydroxy-1,1′-biphenyl-4-yl)-1H-pyrazole-3-carboxamide], the IC50 stood at 0.482 µM.
In the case of `NC(=O)Nc1cn(-c2ccc(-c3ccc(O)cc3)c(F)c2)nc1C(N)=O` [Example 264, 4-[(aminocarbonyl)amino]-1-(2-fluoro-4′-hydroxy-1,1′-biphenyl-4-yl)-1H-pyrazole-3-carboxamide], the IC50 turned out to be 0.17 µM.
For the compound `NC(=O)Nc1cn(-c2ccc(-c3ccc(O)c(F)c3)c(F)c2)nc1C(N)=O` [Example 265, 4-[(aminocarbonyl)amino]-1-(2,3′-difluoro-4′-hydroxy-1,1′-biphenyl-4-yl)-1H-pyrazole-3-carboxamide], the half-inhibitory concentration (IC50) amounted to 6.16 µM.
The same measure, in the same setting: with `NC(=O)COc1ccccc1-c1ccc(-n2cc(NC(N)=O)c(C(N)=O)n2)cc1F` [Example 266, 4-[(aminocarbonyl)amino]-1-[2′-(2-amino-2-oxoethoxy)-2-fluoro-1,1′-biphenyl-4-yl]-1H-pyrazole-3-carboxamide] the figure was 0.392 µM; with `COc1ccccc1-c1ccc(-n2cc(NC(N)=O)c(C(N)=O)n2)cc1F` [Example 267, 4-[(aminocarbonyl)amino]-1-(2-fluoro-2′-methoxy-1,1′-biphenyl-4-yl)-1H-pyrazole-3-carboxamide], 2.75 µM; with `NC(=O)COc1cc(F)ccc1-c1ccc(-n2cc(NC(N)=O)c(C(N)=O)n2)cc1F` [Example 268, 4-[(aminocarbonyl)amino]-1-[2′-(2-amino-2-oxoethoxy)-2,4′-difluoro-1,1′-biphenyl-4-yl]-1H-pyrazole-3-carboxamide], 0.175 µM.
The same measure, in the same setting: with `COc1ccc(F)cc1-c1ccc(-n2cc(NC(N)=O)c(C(N)=O)n2)cc1F` [Example 269, 4-[(aminocarbonyl)amino]-1-(2,5′-difluoro-2′-methoxy-1,1′-biphenyl-4-yl)-1H-pyrazole-3-carboxamide] the figure was 0.781 µM.
